Results reported in patent US20040127475A1, “Apparatus and method for delivering compounds to a living organism” (Estrogen Vascular Technology, LLC, priority 1999, published 2004).

Tested on: porcine coronary arteries
Assay: 17B-estradiol eluting stents in the pig model of instent restenosis, histomorphometric analysis at 30 days
Assay type: in vivo
Conditions: pre-clinical work, same stent, dose and loading process as Example 3
Text: In another example, low and high dose 17B-estradiol eluting stents were compared with control stents in a randomized fashion in 18 porcine coronary arteries. Each artery of six pigs were randomly stented with either a control, low-dose or high-dose 17-estradiol eluting stent. All animals were sacrificed at 30 days for histomorphometric analysis.
The experiment and animal care conformed to National Institutes of Health and American Heart Association guidelines for the care and use of animals and were approved by the Institutional Animal Care and Use Committee at the Washington Hospital Center. Six domestic juvenile swine weighing 35-45 kg were used. […] Heart rate, blood pressure and electrocardiography were monitored throughout the procedure. […]
Coronary angiography was performed after intracoronary nitroglycerin (200 μg) administration and recorded on cine film (Phillips Cardiodiagnost; Shelton, Conn.). […]
The histopathologist was blinded to the stent types in each artery. […] The vessel injury score was determined by the method described by Kornowski et al. The scoring of endothelialization is based on percent of intimal surface covered by endothelial cells. […]
Data (mean±standard deviation) were analyzed to determine differences between treatment groups using an ANOVA with a post-hoc Bonferroni analysis. […]

SMILES: C[C@]12CC[C@@H]3c4ccc(O)cc4CC[C@H]3[C@@H]1CC[C@@H]2O [17β-estradiol, 17β-Estradiol]
- reduction in in-stent neo-intimal formation: 40%
